Source: paper PMC8151276, “An Integrated Approach toward NanoBRET Tracers for Analysis of GPCR Ligand Engagement” (Molecules, 2021)

Tests used:
Type in all cases: binding
BRS3 = target: T1, BRS3 (Homo sapiens, UniProt P32247); assay: NanoBRET screen HiBiT-BRS3 in HEK293
T1 construct: purchased Promega (in-house HiBiT-GPCR construct library, NanoBRET)
T1 sequence (P32247 1-399): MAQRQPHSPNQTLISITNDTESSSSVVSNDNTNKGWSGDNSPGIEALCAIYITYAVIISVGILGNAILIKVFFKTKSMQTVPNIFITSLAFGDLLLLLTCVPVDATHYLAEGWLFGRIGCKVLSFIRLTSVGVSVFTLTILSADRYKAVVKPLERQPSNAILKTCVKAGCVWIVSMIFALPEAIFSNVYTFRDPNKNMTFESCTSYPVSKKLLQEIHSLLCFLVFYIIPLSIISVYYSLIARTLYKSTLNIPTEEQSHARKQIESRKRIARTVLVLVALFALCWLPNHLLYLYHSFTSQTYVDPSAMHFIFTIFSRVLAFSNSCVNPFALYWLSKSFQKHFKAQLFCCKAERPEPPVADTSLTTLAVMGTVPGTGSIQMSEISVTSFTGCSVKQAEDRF
Procedure: (§1) Each tracer candidate was screened across the entire library of HiBiT-GPCR constructs using NanoBRET as the detection modality. As depicted in Figure 4A, the specificity of interactions was evaluated through decrease in BRET due to competitive displacement of a bound tracer by excess parental compound. Each tracer was analyzed for binding to each HiBiT-GPCR fusion in the absence and in the presence of competing parental compound. Briefly, HEK293 cells were transfected with HiBiT-GPCR constructs diluted into promoterless DNA to reduce expression and maximize translocation to the cell surface. Each tracer candidate was then screened at concentrations of 1 μM and 0.1 μM across cells expressing these fusions. Cells were treated for 1.5 h with tracer either alone or in the presence of 20 μM competing parental compound (i.e., control). BRET was measured upon addition of purified LgBiT and subsequent complementation with HiBiT genetically fused to a GPCR. The specificity of interactions was assessed through a decrease in BRET signal due to competitive displacement of the bound tracer. To further gauge the robustness of these interactions, the fold response over the control (i.e., BRETtracer/BRETcontrol) was calculated. We chose a 1.5-fold response, which translates to ≥7-fold signal over noise as the minimal threshold required to score an interaction as positive. […]. Below we highlight the screening results obtained for our exemplary fluorescent tracers based on Clozapine, Amitriptyline and AZD1283.
(§2) HiBiT-GPCR DNA constructs were diluted in 10 mM Tris pH 8 to a final concentration of 0.01 μg/μL, arrayed in 96-well plates and stored at −20 °C. For transfection, HEK293 cells were suspended in Opti-MEM (without phenol red) supplemented with 2% fetal bovine serum (Seradigm) and 100 units/mL penicillin–streptomycin (Gibco) at a final concentration of 220,000 cells/mL and dispensed into white 96-well plates at 90 μL/well. Subsequent transfections and screens were carried using an Agilent Bravo Automated Liquid Handling Platform. First, the 96-well HiBiT DNA arrays were diluted 25-fold in Opti-MEM (without serum or phenol red) to a final concentration of 0.0004 μg/μL and 20 μL of the diluted DNAs were transferred into new 96-well plates. Next, promoterless carrier DNA (1 μg/μL) was diluted 25-fold (0.04 μg/μL) and then dispensed into the diluted arrays at 20 μL/well. Following brief mixing, Viafect transfection reagent (Promega) diluted 16-fold into Opti-MEM was dispensed into the plates at 40 μL/well. After mixing by pipetting, plates were incubated for 10 min on the pipetting station deck. The DNA-transfection reagent complexes were then added to plates containing cells. To facilitate the screen, 10 μL of DNA-transfection reagent complexes were added in duplicates to the top 4 and bottom 4 rows, resulting in two identical 48-well arrays per plate. Plates with transfected cells were incubated for 18–20 h at 37 °C/5% CO2. A screen of each tracer across the entire library using two different concentrations requires duplicate plates of transfected cells. Depending on the number of tracers being screened, transfections can be scaled up using the same ratios. The next day, for each tracer, four 20× screening solutions in tracer dilution buffer (Promega) were prepared: two duplicates at final concentration of 20 μM and two duplicates at a final concentration of 2 μM. A competing unmodified compound was added to one of each duplicate at a final concentration of 400 μM. The four resulting solutions were diluted 4-fold in Opti-MEM without serum or phenol red to generate 5× solutions (5 µM and 0.5 µM tracer +/− 100 μM competing compound). To screen the library, a BioTek MultiFlo FX liquid dispenser was used to dispense 22.5 µL of tracer solution to the top 4 rows and 22.5 µL tracer + competing compound solution to the 4 bottom rows. Plates were briefly mixed on an orbital shaker and incubated for 1.5 h at room temperature. […]

OXTR = target: T2, OXTR (Homo sapiens, UniProt P30559); assay: NanoBRET screen HiBiT-OXTR in HEK293
T2 construct: purchased Promega (in-house HiBiT-GPCR construct library, NanoBRET)
T2 sequence (P30559 1-389): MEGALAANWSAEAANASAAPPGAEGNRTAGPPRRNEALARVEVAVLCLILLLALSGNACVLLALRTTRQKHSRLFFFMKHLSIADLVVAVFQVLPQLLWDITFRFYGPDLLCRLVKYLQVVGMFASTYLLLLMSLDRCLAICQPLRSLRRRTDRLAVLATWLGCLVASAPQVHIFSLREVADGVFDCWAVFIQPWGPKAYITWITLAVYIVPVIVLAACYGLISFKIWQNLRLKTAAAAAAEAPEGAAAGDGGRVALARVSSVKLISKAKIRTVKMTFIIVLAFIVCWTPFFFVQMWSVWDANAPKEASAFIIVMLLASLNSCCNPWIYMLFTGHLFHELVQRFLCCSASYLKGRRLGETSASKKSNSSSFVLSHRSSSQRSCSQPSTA
Procedure: as §1, §2

CCR3 = target: T3, CCR3 (Homo sapiens, UniProt P51677); assay: NanoBRET screen HiBiT-CCR3 in HEK293
T3 construct: purchased Promega (in-house HiBiT-GPCR construct library, NanoBRET)
T3 sequence (P51677 1-355): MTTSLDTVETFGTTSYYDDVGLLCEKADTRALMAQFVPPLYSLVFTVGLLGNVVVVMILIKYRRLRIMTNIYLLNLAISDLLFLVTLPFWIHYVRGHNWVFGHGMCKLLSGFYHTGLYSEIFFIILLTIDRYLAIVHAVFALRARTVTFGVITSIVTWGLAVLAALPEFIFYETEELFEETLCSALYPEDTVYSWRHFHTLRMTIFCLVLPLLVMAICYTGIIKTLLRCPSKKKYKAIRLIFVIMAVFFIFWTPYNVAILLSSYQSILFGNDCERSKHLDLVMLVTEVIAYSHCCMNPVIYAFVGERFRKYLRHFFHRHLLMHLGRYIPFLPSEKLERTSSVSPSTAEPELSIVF
Procedure: as §1, §2

GRM4 = target: T4, GRM4 (Homo sapiens, UniProt Q14833); assay: NanoBRET screen HiBiT-GRM4 in HEK293
T4 construct: purchased Promega (in-house HiBiT-GPCR construct library, NanoBRET)
T4 sequence (Q14833 33-912): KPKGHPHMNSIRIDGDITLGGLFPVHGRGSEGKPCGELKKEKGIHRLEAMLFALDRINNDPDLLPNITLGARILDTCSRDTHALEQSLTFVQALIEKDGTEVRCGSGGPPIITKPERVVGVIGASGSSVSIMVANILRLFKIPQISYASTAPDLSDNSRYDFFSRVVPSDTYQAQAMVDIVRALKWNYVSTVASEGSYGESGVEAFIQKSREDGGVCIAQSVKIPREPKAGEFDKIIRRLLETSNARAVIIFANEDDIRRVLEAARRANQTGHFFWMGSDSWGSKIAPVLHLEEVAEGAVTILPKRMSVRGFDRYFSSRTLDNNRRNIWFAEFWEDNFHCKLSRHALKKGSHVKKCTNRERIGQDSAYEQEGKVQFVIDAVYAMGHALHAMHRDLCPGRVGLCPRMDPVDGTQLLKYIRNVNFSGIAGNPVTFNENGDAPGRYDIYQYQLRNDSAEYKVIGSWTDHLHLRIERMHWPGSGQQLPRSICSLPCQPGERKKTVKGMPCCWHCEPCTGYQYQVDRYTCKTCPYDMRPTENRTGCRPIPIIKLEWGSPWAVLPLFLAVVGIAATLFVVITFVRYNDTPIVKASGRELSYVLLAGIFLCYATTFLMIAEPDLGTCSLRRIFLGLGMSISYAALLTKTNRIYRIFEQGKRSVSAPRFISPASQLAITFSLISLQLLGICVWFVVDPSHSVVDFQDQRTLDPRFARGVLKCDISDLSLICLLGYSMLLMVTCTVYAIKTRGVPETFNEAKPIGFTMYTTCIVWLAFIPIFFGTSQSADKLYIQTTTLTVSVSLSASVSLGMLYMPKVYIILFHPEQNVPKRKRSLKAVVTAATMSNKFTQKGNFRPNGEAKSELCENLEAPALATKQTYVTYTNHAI
Procedure: as §1, §2

SSTR4 = target: T5, SSTR4 (Homo sapiens, UniProt P31391); assay: NanoBRET screen HiBiT-SSTR4 in HEK293
T5 construct: purchased Promega (in-house HiBiT-GPCR construct library, NanoBRET)
T5 sequence (P31391 whole entry): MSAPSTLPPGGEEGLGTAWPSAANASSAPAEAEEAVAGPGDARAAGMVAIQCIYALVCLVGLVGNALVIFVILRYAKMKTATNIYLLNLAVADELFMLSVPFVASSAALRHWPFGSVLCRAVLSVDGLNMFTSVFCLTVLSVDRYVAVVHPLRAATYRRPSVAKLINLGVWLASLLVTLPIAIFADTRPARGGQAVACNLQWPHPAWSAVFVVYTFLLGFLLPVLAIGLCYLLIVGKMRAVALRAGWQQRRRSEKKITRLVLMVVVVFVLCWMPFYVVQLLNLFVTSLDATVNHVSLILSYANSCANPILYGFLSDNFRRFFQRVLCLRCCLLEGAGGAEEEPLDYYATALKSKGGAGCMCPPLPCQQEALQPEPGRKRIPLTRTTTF
Procedure: as §1, §2

SMILES | NanoBRET Fold Response (BRS3; BRS3, tracer 0.1μM) | NanoBRET Fold Response (BRS3; BRS3, tracer 1μM) | NanoBRET Fold Response (OXTR; OXTR, tracer 0.1μM) | NanoBRET Fold Response (OXTR; OXTR, tracer 1μM) | NanoBRET Fold Response (CCR3; CCR3, tracer 0.1μM) | NanoBRET Fold Response (CCR3; CCR3, tracer 1μM) | NanoBRET Fold Response (GRM4; GRM4, tracer 0.1μM) | NanoBRET Fold Response (GRM4; GRM4, tracer 1μM) | NanoBRET Fold Response (SSTR4; SSTR4, tracer 0.1μM) | NanoBRET Fold Response (SSTR4; SSTR4, tracer 1μM) | other results
O=C(CCc1ccc2n1[B-](F)(F)[N+]1=C(c3ccc[nH]3)C=CC1=C2)NCc1ccc(C(=O)NCCOCCC(=O)N[C@@H]2CC[C@@]3(O)[C@H]4Cc5ccc(O)c6c5[C@@]3(CCN4CC3CC3)[C@H]2O6)cc1 [Naltrexone-3-NB590] | 1.05 | 0.94 | 0.99 | 0.91 | 1.35 | 0.89 | 0.75 | 1.05 | 0.99 | 0.90 | 
CCCn1c(=O)c2[nH]c(-c3ccc(OCC(=O)NCCNC(=O)CCOCCNC(=O)c4ccc(CNC(=O)CCc5ccc6n5[B-](F)(F)[N+]5=C(c7ccc[nH]7)C=CC5=C6)cc4)cc3)nc2n(CCC)c1=O [XAC-3-NB590] | 0.95 | 1.04 | 1.04 | 0.98 | 1.28 | 0.79 | 1.03 | 1.07 | 1.01 | 0.93 | 
CC(C)N(CC[C@H](c1ccccc1)c1cc(CCNC(=O)c2ccc(CNC(=O)CCc3ccc4n3[B-](F)(F)[N+]3=C(c5ccc[nH]5)C=CC3=C4)cc2)ccc1O)C(C)C [Tolterodine-BZ-NB590] | 0.89 | 1.09 | 1.02 | 1.01 | 0.98 | 0.72 | 1.02 | 0.99 | 0.99 | 0.93 | 
COc1ccc2[nH]c(-c3ccc(CNC(=O)CCOCCOCCOCCOCCNC(=O)CCc4ccc5n4[B-](F)(F)[N+]4=C(c6ccc[nH]6)C=CC4=C5)cc3)c(CCNC(C)=O)c2n1 [AzomelatoninICO9-2-NB590] |  |  |  |  |  |  |  |  |  |  | NanoBRET Fold Response (BRS3; 0.1μM tracer): 0.86; NanoBRET Fold Response (BRS3; 1μM tracer): 0.91; NanoBRET Fold Response (OXTR; 0.1μM tracer): 0.99; NanoBRET Fold Response (OXTR; 1μM tracer): 0.87; NanoBRET Fold Response (CCR3; 0.1μM tracer): 1.40; NanoBRET Fold Response (CCR3; 1μM tracer): 1.25; NanoBRET Fold Response (GRM4; 0.1μM tracer): 0.97; NanoBRET Fold Response (GRM4; 1μM tracer): 0.85; NanoBRET Fold Response (SSTR4; 0.1μM tracer): 0.84; NanoBRET Fold Response (SSTR4; 1μM tracer): 0.98
CN1CCN(C2=Nc3cc(Cl)ccc3N(CC(=O)NCCOCCOCCOCCOCCNC(=O)CCc3ccc4n3[B-](F)(F)[N+]3=C(c5ccc[nH]5)C=CC3=C4)c3ccccc32)CC1 [Clozapine-c-2-NB590] |  |  |  |  |  |  |  |  |  |  | NanoBRET Fold Response (BRS3; BRS3, 0.1μM tracer): 0.93; NanoBRET Fold Response (BRS3; BRS3, 1μM tracer): 1.07; NanoBRET Fold Response (OXTR; OXTR, 0.1μM tracer): 0.97; NanoBRET Fold Response (OXTR; OXTR, 1μM tracer): 0.96; NanoBRET Fold Response (CCR3; CCR3, 0.1μM tracer): 0.97; NanoBRET Fold Response (CCR3; CCR3, 1μM tracer): 0.85; NanoBRET Fold Response (GRM4; GRM4, 0.1μM tracer): 0.94; NanoBRET Fold Response (GRM4; GRM4, 1μM tracer): 1.14; NanoBRET Fold Response (SSTR4; SSTR4, 0.1μM tracer): 1.03; NanoBRET Fold Response (SSTR4; SSTR4, 1μM tracer): 1.00
COc1ccccc1N1CCN(CCCCN2C(=O)c3ccc(CNC(=O)CCOCCNC(=O)c4ccc(CNC(=O)CCc5ccc6n5[B-](F)(F)[N+]5=C(c7ccc[nH]7)C=CC5=C6)cc4)cc3C2=O)CC1 [NAN-190-3-NB590] | 0.95 | 1.02 | 1.10 | 1.05 | 1.02 | 1.02 | 1.14 | 1.33 | 0.90 | 1.05 | 
Cc1nc2n(c(=O)c1CCN1CCC(c3noc4cc(F)ccc34)CC1)CCCC2OC(=O)NCCOCCOCCOCCOCCNC(=O)CCc1ccc2n1[B-](F)(F)[N+]1=C(c3ccc[nH]3)C=CC1=C2 (centres unmarked) [Risperidone-2-NB590] | 0.95 | 0.98 | 0.97 | 0.97 | 1.06 | 1.27 | 0.98 | 1.05 | 1.03 | 1.04 | 
O=C(CCOCCOCCOCCOCCNC(=O)CCc1ccc2n1[B-](F)(F)[N+]1=C(c3ccc[nH]3)C=CC1=C2)NCCCN1CCN(C2=Nc3ccccc3Oc3ccc(Cl)cc32)CC1 [Loxapine-a-2-NB590] | 0.99 | 1.20 | 0.97 | 1.02 | 1.02 | 1.02 | 1.04 | 0.99 | 1.00 | 1.09 | 
CN(C)CCC=C1c2ccccc2CCc2ccc(C(=O)NCCNC(=O)CCOCCOCCOCCOCCNC(=O)CCc3ccc4n3[B-](F)(F)[N+]3=C(c5ccc[nH]5)C=CC3=C4)cc21 [Amitriptyline-a-2-NB590] |  |  |  |  |  |  |  |  |  |  | NanoBRET Fold Response (BRS3; tracer at 0.1μM): 1.02; NanoBRET Fold Response (BRS3; tracer at 1μM): 0.99; NanoBRET Fold Response (OXTR; tracer at 0.1μM): 0.99; NanoBRET Fold Response (OXTR; tracer at 1μM): 1.09; NanoBRET Fold Response (CCR3; tracer at 0.1μM): 1.02; NanoBRET Fold Response (CCR3; tracer at 1μM): 0.95; NanoBRET Fold Response (SSTR4; tracer at 0.1μM): 1.09; NanoBRET Fold Response (SSTR4; tracer at 1μM): 1.09
CN(CCC=C1c2ccccc2CCc2ccccc21)C(=O)CCOCCOCCOCCOCCNC(=O)CCc1ccc2n1[B-](F)(F)[N+]1=C(c3ccc[nH]3)C=CC1=C2 [Amitriptyline-e-2-NB590] |  |  |  |  |  |  |  |  |  |  | NanoBRET Fold Response (CCR3; tracer at 1μM): 0.86
